Test results: patent US12421207B2 (CMG Pharmaceutical Co., Ltd., priority 2022, dated 2025)

Assays:
PC9/ER cells = test: Cell viability assay (CellTiter-Glo 2.0), erlotinib-resistant PC9/ER cells; format: cell-based; settings: Homo sapiens, PC-9/ER; Table 4; 72 h drug treatment, combinations of EGFR TKIs and inhibitor of Formula (I); read-out: Relative cell viability; IC50 PC9ER
From the text: (§1) To explore c-MET and AXL mechanisms of EGFR TKI resistance, resistant cells of the EGFR TKI hypersensitive EGFR exon 19 mutant NSCLC cell line, HCC827 and PC9 were generated by exposing these cells to increasing concentrations of EGFR TKI for over 3 months.
(§2) Gefitinib-resistant cells were referred to as HCC827/GR. […] Osimertinib-resistant cells were referred to as HCC827/OR.

HCC827/ER cells = test: Cell viability assay (CellTiter-Glo 2.0), erlotinib-resistant HCC827/ER cells; format: cell-based, human; settings: Homo sapiens, HCC827ER, Table 4, 72 h drug treatment, combinations of EGFR TKIs and inhibitor of Formula (I), read-out: Relative cell viability
From the text: as §1, §2

HCC827/GR cells = test: Cell viability assay (CellTiter-Glo 2.0), gefitinib-resistant HCC827/GR cells; format: cell-based, human; settings: Homo sapiens, HCC827; Table 4; 72 h drug treatment, combinations of EGFR TKIs and inhibitor of Formula (I); read-out: Relative cell viability; IC50 HCC827GR
Outline: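 Gefitinib-resistant HCC827 cells, derived by over 3 months' escalating EGFR TKI exposure, seeded at 1,000 cells/well. Treated 72 h with a 10-point dose range from 1 nM to 10,000 nM. Viability read by CellTiter-Glo 2.0 luminescence.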

HCC827/OR cells = test: Cell viability assay (CellTiter-Glo 2.0), osimertinib-resistant HCC827/OR cells; format: cell-based, human; settings: Homo sapiens, HCC827; Table 4; 72 h drug treatment, combinations of EGFR TKIs and inhibitor of Formula (I); read-out: Relative cell viability; IC50 HCC827OR
From the text: as §1, §2

SMILES | IC50 (PC9/ER cells) [nM] | IC50 (HCC827/ER cells) [nM] | IC50 (HCC827/GR cells) [nM] | IC50 (HCC827/OR cells) [nM]
Nc1nccc(Oc2ccc(NC(=O)c3cn(C4CCOCC4)c(=O)n(-c4ccc(F)cc4)c3=O)cc2F)c1C#CCN1CCOCC1 [Example 56, N-(4-(2-amino-3-(3-morpholinoprop-1-ynyl)pyridin-4-yloxy)-3-fluorophenyl)-3-(4-fluorophenyl)-2,4-dioxo-1-(tetrahydro-2H-pyran-4-yl)-1,2,3,4-tetrahydropyrimidine-5-carboxamide] | < 1000 | < 10 | < 100 | < 1000
CN1CCN(C(C)(C)C#Cc2c(Oc3ccc(NC(=O)c4cn(C5CCOCC5)c(=O)n(-c5ccc(F)cc5)c4=O)cc3F)ccnc2N)CC1 [Example 57, N-(4-(2-amino-3-(3-methyl-3-(4-methylpiperazin-1-yl)but-1-ynyl)pyridin-4-yloxy)-3-fluorophenyl)-3-(4-fluorophenyl)-2,4-dioxo-1-(tetrahydro-2H-pyran-4-yl)-1,2,3,4-tetrahydropyrimidine-5-carboxamide] | < 1000 | < 100 | < 100 | < 1000
CN1CCC(CC#Cc2c(Oc3ccc(NC(=O)c4cn(C5CCOCC5)c(=O)n(-c5ccc(F)cc5)c4=O)cc3F)ccnc2N)CC1 [Example 60, N-(4-(2-amino-3-(3-(1-methylpiperidin-4-yl)prop-1-ynyl)pyridin-4-yloxy)-3-fluorophenyl)-3-(4-fluorophenyl)-2,4-dioxo-1-(tetrahydro-2H-pyran-4-yl)-1,2,3,4-tetrahydropyrimidine-5-carboxamide] | < 100 | < 100 | < 100 | < 100
C=CCn1cc(C(=O)Nc2ccc(Oc3ccnc(N)c3C#CCN3CCOCC3)c(F)c2)c(=O)n(CC=C)c1=O [Example 67, 1,3-diallyl-N-(4-(2-amino-3-(3-morpholinoprop-1-ynyl)pyridin-4-yloxy)-3-fluorophenyl)-2,4-dioxo-1,2,3,4-tetrahydropyrimidine-5-carboxamide] | < 1000 | < 100 | < 100 | < 1000
C=CCn1cc(C(=O)Nc2ccc(Oc3ccnc(N)c3C#CC(C)(C)N3CCN(C)CC3)c(F)c2)c(=O)n(CC=C)c1=O [Example 68, 1,3-diallyl-N-(4-(2-amino-3-(3-methyl-3-(4-methylpiperazin-1-yl)but-1-ynyl)pyridin-4-yloxy)-3-fluorophenyl)-2,4-dioxo-1,2,3,4-tetrahydropyrimidine-5-carboxamide] | < 10000 | < 1000 | < 1000 | < 1000

The next lines start with the values.

IC50 (PC9/ER cells) [nM] | IC50 (HCC827/ER cells) [nM] | IC50 (HCC827/GR cells) [nM] | IC50 (HCC827/OR cells) [nM] | SMILES
< 1000 | < 1000 | < 1000 | < 1000 | CC(C)(C#Cc1c(Oc2ccc(NC(=O)c3cn(C4CCOCC4)c(=O)n(-c4ccc(F)cc4)c3=O)cc2F)ccnc1N)N1CCNCC1 [Example 58, N-(4-(2-amino-3-(3-methyl-3-(piperazin-1-yl)but-1-ynyl)pyridin-4-yloxy)-3-fluorophenyl)-3-(4-fluorophenyl)-2,4-dioxo-1-(tetrahydro-2H-pyran-4-yl)-1,2,3,4-tetrahydropyrimidine-5-carboxamide]
< 1000 | < 1000 | < 1000 | < 1000 | Nc1nccc(Oc2ccc(NC(=O)c3cn(C4CCOCC4)c(=O)n(-c4ccc(F)cc4)c3=O)cc2F)c1C#CCC1CCNCC1 [Example 59, N-(4-(2-amino-3-(3-(piperidin-4-yl)prop-1-ynyl)pyridin-4-yloxy)-3-fluorophenyl)-3-(4-fluorophenyl)-2,4-dioxo-1-(tetrahydro-2H-pyran-4-yl)-1,2,3,4-tetrahydropyrimidine-5-carboxamide]
< 1000 | < 1000 | < 1000 | < 1000 | C=CCn1cc(C(=O)Nc2ccc(Oc3ccnc(N)c3C#CCC3CCN(C)CC3)c(F)c2)c(=O)n(CC=C)c1=O [Example 69, 1,3-diallyl-N-(4-(2-amino-3-(3-(1-methylpiperdin-4-yl)prop-1-ynyl)pyridin-4-yloxy)-3-fluorophenyl)-2,4-dioxo-1,2,3,4-tetrahydropyrimidine-5-carboxamide]
< 10000 | < 1000 | < 1000 | < 1000 | C=CCn1cc(C(=O)Nc2ccc(Oc3ccnc(N)c3C#CC(C)(C)N3CCOCC3)c(F)c2)c(=O)n(CC=C)c1=O [Example 70, 1,3-diallyl-N-(4-(2-amino-3-(3-methyl-3-morpholinobut-1-ynyl)pyridin-4-yloxy)-3-fluorophenyl)-2,4-dioxo-1,2,3,4-tetrahydropyrimidine-5-carboxamide]
< 1000 | < 1000 | < 1000 | < 1000 | C=CCn1cc(C(=O)Nc2ccc(Oc3ccnc(N)c3C#CCC3CCNCC3)c(F)c2)c(=O)n(CC=C)c1=O [Example 71, 1,3-dialyl-N-(4-(2-amino-3-(3-(piperidin-4-yl)prop-1-ynyl)pyridin-4-yloxy)-3-fluorophenyl)-2,4-dioxo-1,2,3,4-tetrahydropyrimidine-5-carboxamide]
